Target: T1, CRTH2 receptor (Homo sapiens, UniProt Q9Y5Y4)
T1 sequence (Q9Y5Y4 1-395): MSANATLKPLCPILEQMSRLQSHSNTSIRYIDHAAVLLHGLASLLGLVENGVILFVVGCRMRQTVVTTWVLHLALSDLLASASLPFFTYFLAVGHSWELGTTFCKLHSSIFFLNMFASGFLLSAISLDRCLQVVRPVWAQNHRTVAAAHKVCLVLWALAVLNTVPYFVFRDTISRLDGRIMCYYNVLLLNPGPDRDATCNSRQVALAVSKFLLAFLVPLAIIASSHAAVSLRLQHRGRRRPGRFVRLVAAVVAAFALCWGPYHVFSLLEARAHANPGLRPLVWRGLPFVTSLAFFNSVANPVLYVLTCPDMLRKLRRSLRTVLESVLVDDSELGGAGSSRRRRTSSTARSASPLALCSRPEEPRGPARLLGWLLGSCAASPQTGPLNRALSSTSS
Assay: Radioligand binding assay ([3H]-PGD2 displacement, SPA)
Parameters: expressed in transfected cells; host or cells: HEK cell membranes
Conditions: HEK cell membranes expressing the CRTH2 receptor, 1 nM [3H]-PGD2; Ki from IC50 by Cheng-Prusoff
Method: Radioligand Binding Assay
The receptor binding assay is performed in a final volume of 200 μL binding buffer [10 mM BES (pH 7.4), 1 mM EDTA, 10 mM manganese chloride, 0.01% BSA] and 1 nM [^3H]-PGD2 (Amersham Biosciences UK Ltd). Ligands are added in assay buffer containing a constant amount of DMSO (1% by volume). Total binding is determined using 1% by volume of DMSO in assay buffer and non-specific binding is determined using 10 μM of unlabeled PGD2 (Sigma). Human embryonic kidney (HEK) cell membranes (3.5 μg) expressing the CRTH2 receptor are incubated with 1.5 mg wheatgerm agglutinin SPA beads and 1 nM [^3H]-PGD2 (Amersham Biosciences UK Ltd) and the mixture incubated for 3 hours at room temperature. Bound [^3H]-PGD2 is detected using a Microbeta TRILUX liquid scintillation counter (Perkin Elmer). Compound IC50 value is determined using a 6-point dose response curve in duplicate with a semi-log compound dilution series. IC50 calculations are performed using Excel and XLfit (Microsoft), and this value is used to determine a Ki value for the test compound using the Cheng-Prusoff equation.

`Cc1nc2c(Cl)ccc(OCC(=O)O)c2c(OC(F)F)c1Cc1ccc(S(C)(=O)=O)cc1Cl` [Example 35, [8-chloro-3-(2-chloro-4-methanesulfonylbenzyl)-4-difluoro-methoxy-2-methylquinolin-5-yloxy]acetic Acid] and `Cc1c(Cc2ccc(S(C)(=O)=O)cc2Cl)c(OC(F)F)nc2c(Cl)ccc(OCC(=O)O)c12` [Example 40, [8-chloro-3-(2-chloro-4-methanesulfonylbenzyl)-2-difluoromethoxy-4-methylquinolin-5-yloxy]acetic Acid] cannot be ordered by Ki: less than 0.1 µM for the first, less than 0.1 µM for the second.

`Cc1c(Cc2ccc(S(C)(=O)=O)cc2)c(OC(F)F)nc2c(Cl)ccc(CC(=O)O)c12` [Example 36, [8-chloro-2-difluoromethoxy-3-(4-methanesulfonylbenzyl)-4-methylquinolin-5-yl]acetic Acid] and `Cc1c(Cc2ccc(S(C)(=O)=O)cc2)c(OC(F)F)nc2c(F)ccc(OCC(=O)O)c12` [Example 48, [2-difluoromethoxy-8-fluoro-3-(4-methanesulfonylbenzyl)-4-methylquinolin-5-yloxy]acetic acid] cannot be ordered by Ki: less than 0.1 µM for the first, less than 0.1 µM for the second.

`CCc1nc2c(Cl)ccc(OCC(=O)O)c2c(OC(F)F)c1Cc1ccc(F)cc1` [Example 37, [8-chloro-4-difluoromethoxy-2-ethyl-3-(4-fluorobenzyl)quinolin-5-yloxy]acetic Acid] and `CCc1nc2c(Cl)ccc(OCC(=O)O)c2c(OC(F)F)c1Cc1ccc(Cl)cc1` [Example 39, [8-chloro-3-(4-chlorobenzyl)-4-difluoromethoxy-2-ethylquinolin-5-yloxy]acetic Acid] cannot be ordered by Ki: less than 0.1 µM for the first, less than 0.1 µM for the second.

`Cc1nc2c(Cl)ccc(OCC(=O)O)c2c(C)c1Cc1ccc(S(C)(=O)=O)cc1Cl` [Example 38, [8-chloro-3-(2-chloro-4-methanesulfonylbenzyl)-2,4-dimethylquinolin-5-yloxy]acetic Acid] and `Cc1c(Cc2ccc(S(C)(=O)=O)cc2Cl)c(OC(F)F)nc2c(F)ccc(OCC(=O)O)c12` [Example 46, [3-(2-chloro-4-methanesulfonylbenzyl)-2-difluoromethoxy-8-fluoro-4-methylquinolin-5-yloxy]acetic acid] cannot be ordered by Ki: less than 0.1 µM for the first, less than 0.1 µM for the second.

`CCc1nc2c(Cl)ccc(OCC(=O)O)c2c(CC)c1Cc1ccc(S(C)(=O)=O)cc1` [Example 41, [8-chloro-2,4-diethyl-3-(4-methanesulfonylbenzyl)quinolin-5-yloxy]acetic Acid] and `Cc1c(Cc2ccc(S(C)(=O)=O)cc2)c(C#N)nc2c(Cl)ccc(OCC(=O)O)c12` [Example 44, [8-chloro-2-cyano-3-(4-methanesulfonylbenzyl)-4-methylquinolin-5-yloxy]acetic Acid] cannot be ordered by Ki: less than 0.1 µM for the first, less than 0.1 µM for the second.

`CC(C)c1nc2c(Cl)ccc(OCC(=O)O)c2c(OC(F)F)c1Cc1ccc(S(C)(=O)=O)cc1` [Example 43, [8-chloro-4-difluoromethoxy-2-isopropyl-3-(4-methanesulfonylbenzyl)quinolin-5-yloxy]acetic Acid] and `CCc1nc2c(F)ccc(OCC(=O)O)c2c(OC(F)F)c1Cc1ccc(S(C)(=O)=O)cc1` [Example 45, [4-difluoromethoxy-2-ethyl-8-fluoro-3-(4-methanesulfonylbenzyl)-quinolin-5-yloxy]acetic Acid] cannot be ordered by Ki: less than 0.1 µM for the first, less than 0.1 µM for the second.

`CCc1nc2c(F)ccc(OCC(=O)O)c2c(OC(F)F)c1Cc1ccc(S(C)(=O)=O)cc1Cl` [Example 47, [3-(2-chloro-4-methanesulfonylbenzyl)-4-difluoromethoxy-2-ethyl-8-fluoroquinolin-5-yloxy]acetic acid] and `CCc1nc2c(F)ccc(OCC(=O)O)c2c(OC(F)F)c1Cc1ccc(Cl)cc1Cl` [Example 54, [3-(2,4-dichlorobenzyl)-4-difluoromethoxy-2-ethyl-8-fluoroquinolin-5-yloxy]acetic acid] cannot be ordered by Ki: less than 0.1 µM for the first, less than 0.1 µM for the second.

`CCc1nc2c(F)ccc(OCC(=O)O)c2c(OC(F)F)c1Cc1ccc(Cl)cc1` [Example 49, [3-(4-chlorobenzyl)-4-difluoromethoxy-2-ethyl-8-fluoroquinolin-5-yloxy]acetic Acid] and `CCc1nc2c(F)ccc(OCC(=O)O)c2c(OC(F)F)c1Cc1ccc(F)cc1` [Example 50, [4-difluoromethoxy-2-ethyl-8-fluoro-3-(4-fluorobenzyl)quinolin-5-yloxy]acetic Acid] cannot be ordered by Ki: less than 0.1 µM for the first, less than 0.1 µM for the second.

`Cc1c(Cc2ccc(Cl)cc2Cl)c(OC(F)F)nc2c(F)ccc(OCC(=O)O)c12` [Example 51, [3-(2,4-dichlorobenzyl)-2-difluoromethoxy-8-fluoro-4-methylquinolin-5-yloxy]acetic Acid] and `Cc1c(Cc2ccc(Cl)cc2F)c(OC(F)F)nc2c(F)ccc(OCC(=O)O)c12` [Example 56, [3-(4-chloro-2-fluorobenzyl)-2-difluoromethoxy-8-fluoro-4-methylquinolin-5-yloxy]acetic Acid] cannot be ordered by Ki: less than 0.1 µM for the first, less than 0.1 µM for the second.

`Cc1c(Cc2ccc(F)cc2)c(OC(F)F)nc2c(F)ccc(OCC(=O)O)c12` [Example 52, [2-difluoromethoxy-8-fluoro-3-(4-fluorobenzyl)-4-methylquinolin-5-yloxy]acetic Acid] and `Cc1c(Cc2ccc(Cl)cc2)c(OC(F)F)nc2c(Cl)ccc(OCC(=O)O)c12` [Example 57, [8-chloro-3-(4-chlorobenzyl)-2-difluoromethoxy-4-methylquinolin-5-yloxy]acetic Acid] cannot be ordered by Ki: less than 0.1 µM for the first, less than 0.1 µM for the second.

`CCc1nc2c(F)ccc(OCC(=O)O)c2c(OC(F)F)c1Cc1ccc(F)cc1F` [Example 53, [3-(2,4-difluorobenzyl)-4-difluoromethoxy-2-ethyl-8-fluoroquinolin-5-yloxy]acetic Acid] and `CCc1nc2c(F)ccc(OCC(=O)O)c2c(OC(F)F)c1Cc1ccc(F)cc1Cl` [Example 58, [3-(2-chloro-4-fluorobenzyl)-4-difluoromethoxy-2-ethyl-8-fluoroquinolin-5-yloxy]acetic Acid] cannot be ordered by Ki: less than 0.1 µM for the first, less than 0.1 µM for the second.

`Cc1c(Cc2ccc(F)cc2F)c(OC(F)F)nc2c(F)ccc(OCC(=O)O)c12` [Example 55, [3-(2,4-difluorobenzyl)-2-difluoromethoxy-8-fluoro-4-methylquinolin-5-yloxy]acetic acid] and `Cc1c(Cc2ccc(F)cc2Cl)c(OC(F)F)nc2c(F)ccc(OCC(=O)O)c12` [Example 59, [3-(2-chloro-4-fluorobenzyl)-2-difluoromethoxy-8-fluoro-4-methylquinolin-5-yloxy]acetic Acid] cannot be ordered by Ki: less than 0.1 µM for the first, less than 0.1 µM for the second.

`CCc1nc2c(F)ccc(OCC(=O)O)c2c(OC(F)F)c1Cc1ccc(S(=O)(=O)CC)cc1` [Example 60, [4-difluoromethoxy-3-(4-ethanesulfonylbenzyl)-2-ethyl-8-fluoroquinolin-5-yloxy]acetic Acid] and `CCS(=O)(=O)c1ccc(Cc2c(OC(F)F)nc3c(F)ccc(OCC(=O)O)c3c2C)cc1` [Example 61, [2-difluoromethoxy-3-(4-ethanesulfonylbenzyl)-8-fluoro-4-methylquinolin-5-yloxy]acetic Acid] cannot be ordered by Ki: less than 0.1 µM for the first, less than 0.1 µM for the second.

`CCc1nc2c(Cl)ccc(OCC(=O)O)c2c(OC(F)F)c1Cc1ccc(Cl)cc1F` [Example 62, [8-chloro-3-(4-chloro-2-fluorobenzyl)-4-difluoromethoxy-2-ethylquinolin-5-yloxy]acetic Acid] and `CCc1nc2c(F)ccc(OCC(=O)O)c2c(OC(F)F)c1Cc1ccc(Cl)cc1F` [Example 63, [3-(4-chloro-2-fluorobenzyl)-4-difluoromethoxy-2-ethyl-8-fluoroquinolin-5-yloxy]acetic acid] cannot be ordered by Ki: less than 0.1 µM for the first, less than 0.1 µM for the second.

`CCc1nc2c(F)ccc(OCC(=O)O)c2c(OC(F)F)c1Cc1ccc(S(=O)(=O)N2CCOCC2)cc1` [Example 64, {4-difluoromethoxy-2-ethyl-8-fluoro-3-[4-(morpholine-4-sulfonyl)benzyl]quinolin-5-yloxy}acetic acid] and `CCc1nc2c(F)ccc(OCC(=O)O)c2c(OC(F)F)c1Cc1ccc(C(=O)N2CCCC2)cc1` [Example 65, {4-difluoromethoxy-2-ethyl-8-fluoro-3-[4-(pyrrolidine-1-carbonyl)benzyl]quinolin-5-yloxy}acetic Acid] cannot be ordered by Ki: less than 0.1 µM for the first, less than 0.1 µM for the second.

`Cc1c(Cc2ccc(Cl)cc2)c(OC(F)F)nc2c(Cl)ccc(OC(C)(C)C(=O)O)c12` [Example 66, 2-[8-chloro-3-(4-chlorobenzyl)-2-difluoromethoxy-4-methylquinolin-5-yloxy]-2-methylpropionic Acid] and `Cc1c(Cc2ccc(Cl)cc2Cl)c(OC(F)F)nc2c(F)ccc(OC(C)C(=O)O)c12` (stereo not drawn) [Example 67, 2-[3-(2,4-dichlorobenzyl)-2-difluoromethoxy-8-fluoro-4-methylquinolin-5-yloxy]propionic Acid] cannot be ordered by Ki: less than 10 µM for the first, less than 0.1 µM for the second.

Work on `Cc1c(Cc2ccc(Cl)cc2Cl)c(OC(F)F)nc2c(F)ccc(O[C@@H](C)C(=O)O)c12` [Example 68, (S)-2-[3-(2,4-dichlorobenzyl)-2-difluoromethoxy-8-fluoro-4-methylquinolin-5-yloxy]propionic Acid] yielded a Ki of less than 0.1 µM.
